Among the data in ChEMBL document CHEMBL2429832, “N-substituted 8-aminopentacyclo[5.4.0.0(2,6).0(3,10).0(5,9)]undecanes as σ receptor ligands with potential neuroprotective effects” (Bioorg Med Chem, 2013) are inhibition and Ratio Ki values, retold here.

Bounds are passed on as bounds.

The target of experiment [1] is 5-hydroxytryptamine receptor 1E (Homo sapiens) (UniProt P28566). Description: Inhibition of 5-HT1E receptor (unknown origin) at 10 uM by PDSP assay relative to control.
Experiment [2] has as its target Histamine H3 receptor (Homo sapiens, UniProt Q9Y5N1). Put plainly: Inhibition of histamine H3 receptor (unknown origin) at 10 uM by PDSP assay relative to control.
The target of experiment [3] is Histamine H4 receptor (Homo sapiens, UniProt Q9H3N8). Put plainly: Inhibition of histamine H4 receptor (unknown origin) at 10 uM by PDSP assay relative to control.
Experiment [4] deals with Histamine H2 receptor (Homo sapiens, UniProt P25021). Description: Inhibition of histamine H2 receptor (unknown origin) at 10 uM by PDSP assay relative to control.
Experiment [5] addresses GABA-A receptor; agonist GABA site (Homo sapiens) (UniProt P14867+P47870+P28472+P48169+P34903+P18505+P47869+P31644+Q16445). Description: Inhibition of GABAA receptor (unknown origin) at 10 uM by PDSP assay relative to control. It counts as protein-complex assay.
For experiment [6], the target named is D(2) dopamine receptor (Homo sapiens, UniProt P14416). Description: Inhibition of dopamine D2 receptor (unknown origin) at 10 uM by PDSP assay relative to control.
The target of experiment [7] is D(1A) dopamine receptor (Homo sapiens) (UniProt P21728). Description: Inhibition of dopamine D1 receptor (unknown origin) at 10 uM by PDSP assay relative to control.
The species entered for experiment [8] is Rattus norvegicus. Put plainly: Inhibition of rat brain BZP receptor at 10 uM by PDSP assay relative to control.
The target of experiment [9] is T1, Alpha-1B adrenergic receptor (Homo sapiens) (UniProt P35368).
T1 sequence (whole entry): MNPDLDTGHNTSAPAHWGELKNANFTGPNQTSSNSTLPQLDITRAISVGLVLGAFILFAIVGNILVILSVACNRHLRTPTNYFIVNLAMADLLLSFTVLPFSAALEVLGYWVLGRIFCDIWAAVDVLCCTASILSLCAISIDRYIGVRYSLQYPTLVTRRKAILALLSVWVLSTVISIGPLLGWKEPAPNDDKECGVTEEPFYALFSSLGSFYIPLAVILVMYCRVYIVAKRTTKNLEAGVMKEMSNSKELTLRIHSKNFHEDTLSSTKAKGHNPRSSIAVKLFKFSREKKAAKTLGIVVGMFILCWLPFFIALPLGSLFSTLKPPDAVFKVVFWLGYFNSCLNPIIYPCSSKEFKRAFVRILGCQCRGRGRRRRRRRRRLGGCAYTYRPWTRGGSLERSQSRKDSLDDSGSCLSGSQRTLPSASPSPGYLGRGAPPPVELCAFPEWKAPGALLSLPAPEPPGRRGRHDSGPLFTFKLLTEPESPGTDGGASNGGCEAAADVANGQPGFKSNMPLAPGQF
Put plainly: Inhibition of adrenergic alpha1B receptor (unknown origin) at 10 uM by PDSP assay relative to control.

Experiment [10] deals with PC-12. Put plainly: Selectivity ratio of Ki for sigma-1 receptor in rat brain homogenates to Ki for sigma-2 receptor in rat PC12 cells. It counts as cell-based.
Experiment [11] addresses Delta-type opioid receptor (Homo sapiens, UniProt P41143). Description: Inhibition of delta opioid receptor (unknown origin) at 10 uM by PDSP assay relative to control.
Experiment [12] concerns the target T2, Muscarinic acetylcholine receptor M5 (Homo sapiens) (UniProt P08912).
T2 sequence (whole entry): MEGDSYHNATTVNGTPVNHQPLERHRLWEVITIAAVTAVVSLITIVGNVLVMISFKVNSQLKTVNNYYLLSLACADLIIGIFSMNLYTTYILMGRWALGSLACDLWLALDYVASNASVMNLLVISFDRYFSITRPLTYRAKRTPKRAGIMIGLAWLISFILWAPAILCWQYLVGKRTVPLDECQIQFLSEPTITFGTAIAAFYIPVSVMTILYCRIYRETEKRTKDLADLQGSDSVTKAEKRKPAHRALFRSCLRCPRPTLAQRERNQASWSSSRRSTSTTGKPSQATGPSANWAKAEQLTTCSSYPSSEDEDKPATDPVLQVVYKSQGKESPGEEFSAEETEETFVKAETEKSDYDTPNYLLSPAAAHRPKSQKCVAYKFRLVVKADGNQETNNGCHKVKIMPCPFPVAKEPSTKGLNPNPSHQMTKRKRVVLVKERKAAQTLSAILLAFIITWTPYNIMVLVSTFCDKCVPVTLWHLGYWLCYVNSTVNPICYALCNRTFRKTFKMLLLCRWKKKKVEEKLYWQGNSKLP
Put plainly: Inhibition of muscarinic M5 receptor (unknown origin) at 10 uM by PDSP assay relative to control.

For experiment [13], the target named is Muscarinic acetylcholine receptor M3 (Homo sapiens, UniProt P20309). Put plainly: Inhibition of muscarinic M3 receptor (unknown origin) at 10 uM by PDSP assay relative to control.
Experiment [14] deals with 5-hydroxytryptamine receptor 5A (Homo sapiens, UniProt P47898). Put plainly: Inhibition of 5-HT5A receptor (unknown origin) at 10 uM by PDSP assay relative to control.
Experiment [15] deals with T3, 5-hydroxytryptamine receptor 3A (Homo sapiens) (UniProt P46098).
T3 sequence (whole entry): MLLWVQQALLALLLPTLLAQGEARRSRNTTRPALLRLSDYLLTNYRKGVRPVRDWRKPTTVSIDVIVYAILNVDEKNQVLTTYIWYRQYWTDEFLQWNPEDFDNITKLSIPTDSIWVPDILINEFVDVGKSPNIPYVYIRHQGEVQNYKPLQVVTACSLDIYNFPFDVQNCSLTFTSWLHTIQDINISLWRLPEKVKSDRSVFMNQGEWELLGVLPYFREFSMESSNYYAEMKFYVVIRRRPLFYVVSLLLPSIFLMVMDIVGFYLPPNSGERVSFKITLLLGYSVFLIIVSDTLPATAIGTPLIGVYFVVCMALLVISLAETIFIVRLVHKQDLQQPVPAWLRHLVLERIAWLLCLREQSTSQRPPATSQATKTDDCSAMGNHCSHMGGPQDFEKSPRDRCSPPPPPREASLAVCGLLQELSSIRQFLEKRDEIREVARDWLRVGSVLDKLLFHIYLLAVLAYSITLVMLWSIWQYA
Put plainly: Inhibition of 5-HT3 receptor (unknown origin) at 10 uM by PDSP assay relative to control.

For experiment [16], the target named is Sodium-dependent dopamine transporter (Homo sapiens, UniProt Q01959). Description: Displacement of [3H]-WIN-35,428 from human DAT expressed in HEK cell membranes at 10 uM relative to control. Particulars: HEK293.
Sequence of Sodium-dependent dopamine transporter (Q01959 whole entry): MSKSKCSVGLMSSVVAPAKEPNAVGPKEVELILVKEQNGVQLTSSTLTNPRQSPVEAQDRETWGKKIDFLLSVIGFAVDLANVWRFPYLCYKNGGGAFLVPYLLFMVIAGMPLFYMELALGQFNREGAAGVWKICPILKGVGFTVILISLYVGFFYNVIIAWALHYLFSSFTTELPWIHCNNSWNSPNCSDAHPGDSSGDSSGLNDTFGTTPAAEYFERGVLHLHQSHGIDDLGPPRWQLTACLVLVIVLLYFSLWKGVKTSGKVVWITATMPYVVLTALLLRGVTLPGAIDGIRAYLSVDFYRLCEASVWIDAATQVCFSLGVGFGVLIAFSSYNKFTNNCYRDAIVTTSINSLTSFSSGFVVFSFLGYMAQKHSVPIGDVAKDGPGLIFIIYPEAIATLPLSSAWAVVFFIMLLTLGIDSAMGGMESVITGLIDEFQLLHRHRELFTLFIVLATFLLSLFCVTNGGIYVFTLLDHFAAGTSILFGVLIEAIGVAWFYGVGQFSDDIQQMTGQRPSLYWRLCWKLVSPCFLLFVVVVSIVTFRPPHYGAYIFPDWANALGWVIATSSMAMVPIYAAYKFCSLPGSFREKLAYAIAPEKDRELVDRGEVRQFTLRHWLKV

Sequence of Histamine H3 receptor (Q9Y5N1 whole entry): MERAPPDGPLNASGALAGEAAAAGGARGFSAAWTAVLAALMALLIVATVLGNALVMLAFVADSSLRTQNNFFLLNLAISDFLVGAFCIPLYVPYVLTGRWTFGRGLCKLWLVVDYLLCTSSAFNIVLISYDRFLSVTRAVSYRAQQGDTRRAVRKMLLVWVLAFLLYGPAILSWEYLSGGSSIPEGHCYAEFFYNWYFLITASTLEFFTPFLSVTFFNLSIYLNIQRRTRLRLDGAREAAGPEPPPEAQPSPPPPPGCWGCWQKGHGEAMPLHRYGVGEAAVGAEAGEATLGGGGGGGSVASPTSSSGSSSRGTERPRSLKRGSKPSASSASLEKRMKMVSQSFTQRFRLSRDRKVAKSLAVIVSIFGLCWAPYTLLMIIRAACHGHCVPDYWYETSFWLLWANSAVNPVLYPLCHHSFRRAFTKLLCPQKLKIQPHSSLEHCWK
Sequence of D(1A) dopamine receptor (Homo sapiens) (P21728 whole entry): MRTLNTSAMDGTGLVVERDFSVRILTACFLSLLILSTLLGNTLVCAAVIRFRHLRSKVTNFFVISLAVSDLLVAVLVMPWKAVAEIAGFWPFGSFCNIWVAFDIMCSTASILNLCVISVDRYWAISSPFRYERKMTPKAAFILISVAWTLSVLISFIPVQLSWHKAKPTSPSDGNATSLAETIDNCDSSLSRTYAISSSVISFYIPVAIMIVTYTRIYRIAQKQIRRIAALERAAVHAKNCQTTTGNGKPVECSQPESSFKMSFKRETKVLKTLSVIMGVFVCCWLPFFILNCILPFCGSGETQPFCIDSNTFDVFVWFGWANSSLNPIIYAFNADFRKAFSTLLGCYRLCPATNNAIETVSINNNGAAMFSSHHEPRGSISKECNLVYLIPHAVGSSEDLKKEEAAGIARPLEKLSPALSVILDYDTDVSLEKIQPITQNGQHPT
Sequence of 5-hydroxytryptamine receptor 5A (P47898 whole entry): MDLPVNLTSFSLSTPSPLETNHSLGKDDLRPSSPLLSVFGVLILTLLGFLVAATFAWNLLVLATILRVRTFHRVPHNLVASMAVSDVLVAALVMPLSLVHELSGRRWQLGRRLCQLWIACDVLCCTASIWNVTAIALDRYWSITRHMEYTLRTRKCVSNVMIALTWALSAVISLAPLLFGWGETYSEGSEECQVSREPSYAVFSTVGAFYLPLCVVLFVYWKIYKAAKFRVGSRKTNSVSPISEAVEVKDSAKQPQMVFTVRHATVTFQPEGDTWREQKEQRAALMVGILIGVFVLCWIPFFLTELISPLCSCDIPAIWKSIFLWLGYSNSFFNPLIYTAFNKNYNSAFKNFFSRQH
Sequence of Delta-type opioid receptor (P41143 whole entry): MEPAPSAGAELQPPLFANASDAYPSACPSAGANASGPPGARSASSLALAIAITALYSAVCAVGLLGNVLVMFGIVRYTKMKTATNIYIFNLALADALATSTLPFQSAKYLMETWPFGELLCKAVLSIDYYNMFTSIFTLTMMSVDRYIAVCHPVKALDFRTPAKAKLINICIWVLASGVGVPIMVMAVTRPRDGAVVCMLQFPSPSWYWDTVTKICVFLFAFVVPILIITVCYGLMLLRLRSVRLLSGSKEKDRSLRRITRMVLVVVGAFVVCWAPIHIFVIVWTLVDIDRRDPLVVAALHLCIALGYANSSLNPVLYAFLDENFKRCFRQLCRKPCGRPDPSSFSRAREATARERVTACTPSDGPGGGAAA
Sequence of 5-hydroxytryptamine receptor 1E (Homo sapiens) (P28566 whole entry): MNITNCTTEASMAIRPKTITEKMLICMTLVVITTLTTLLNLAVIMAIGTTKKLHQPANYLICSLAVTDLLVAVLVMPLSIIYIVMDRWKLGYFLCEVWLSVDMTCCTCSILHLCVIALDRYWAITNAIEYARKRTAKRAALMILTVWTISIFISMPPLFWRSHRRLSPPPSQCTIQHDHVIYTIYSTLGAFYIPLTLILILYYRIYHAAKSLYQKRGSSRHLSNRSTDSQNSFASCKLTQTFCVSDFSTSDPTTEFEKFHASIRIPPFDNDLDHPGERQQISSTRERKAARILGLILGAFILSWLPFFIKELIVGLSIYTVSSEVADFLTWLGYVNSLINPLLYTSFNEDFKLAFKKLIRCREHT
Sequence of Histamine H4 receptor (Q9H3N8 whole entry): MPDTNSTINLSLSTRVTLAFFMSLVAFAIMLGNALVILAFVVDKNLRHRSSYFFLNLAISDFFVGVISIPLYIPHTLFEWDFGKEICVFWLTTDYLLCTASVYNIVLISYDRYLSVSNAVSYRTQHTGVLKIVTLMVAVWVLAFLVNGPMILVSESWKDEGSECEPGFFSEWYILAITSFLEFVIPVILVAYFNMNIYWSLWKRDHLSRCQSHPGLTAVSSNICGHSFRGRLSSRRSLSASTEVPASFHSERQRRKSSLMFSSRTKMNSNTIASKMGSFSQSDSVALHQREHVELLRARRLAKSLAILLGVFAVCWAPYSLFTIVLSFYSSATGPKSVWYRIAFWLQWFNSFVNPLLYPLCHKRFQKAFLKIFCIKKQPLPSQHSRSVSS
Sequence of Histamine H2 receptor (P25021 whole entry): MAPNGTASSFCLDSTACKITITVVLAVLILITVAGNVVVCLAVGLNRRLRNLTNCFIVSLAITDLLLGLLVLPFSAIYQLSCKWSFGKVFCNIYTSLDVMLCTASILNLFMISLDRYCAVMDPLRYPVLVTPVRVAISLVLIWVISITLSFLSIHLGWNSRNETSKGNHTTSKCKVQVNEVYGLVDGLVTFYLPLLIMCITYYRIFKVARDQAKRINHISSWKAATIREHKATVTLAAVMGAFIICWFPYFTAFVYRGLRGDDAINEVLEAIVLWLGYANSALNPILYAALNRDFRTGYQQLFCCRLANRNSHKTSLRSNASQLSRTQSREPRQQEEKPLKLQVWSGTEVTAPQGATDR
Sequence of Muscarinic acetylcholine receptor M3 (P20309 whole entry, looked up): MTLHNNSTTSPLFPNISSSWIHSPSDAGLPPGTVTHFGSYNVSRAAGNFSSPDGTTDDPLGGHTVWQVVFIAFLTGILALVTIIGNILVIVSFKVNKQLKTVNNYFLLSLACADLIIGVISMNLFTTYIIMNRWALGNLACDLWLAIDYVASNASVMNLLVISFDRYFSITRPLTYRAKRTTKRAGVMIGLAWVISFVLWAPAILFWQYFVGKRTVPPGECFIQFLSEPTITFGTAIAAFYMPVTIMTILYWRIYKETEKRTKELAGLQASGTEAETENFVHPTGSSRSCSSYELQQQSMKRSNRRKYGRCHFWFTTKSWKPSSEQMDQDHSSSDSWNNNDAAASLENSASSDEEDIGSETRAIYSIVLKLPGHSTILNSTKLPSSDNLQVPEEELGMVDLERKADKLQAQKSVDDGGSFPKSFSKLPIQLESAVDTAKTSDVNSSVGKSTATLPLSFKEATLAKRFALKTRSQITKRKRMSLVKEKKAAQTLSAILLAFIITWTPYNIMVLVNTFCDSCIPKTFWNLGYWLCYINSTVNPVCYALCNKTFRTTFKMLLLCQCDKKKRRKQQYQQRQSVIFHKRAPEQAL
Sequence of D(2) dopamine receptor (P14416 whole entry): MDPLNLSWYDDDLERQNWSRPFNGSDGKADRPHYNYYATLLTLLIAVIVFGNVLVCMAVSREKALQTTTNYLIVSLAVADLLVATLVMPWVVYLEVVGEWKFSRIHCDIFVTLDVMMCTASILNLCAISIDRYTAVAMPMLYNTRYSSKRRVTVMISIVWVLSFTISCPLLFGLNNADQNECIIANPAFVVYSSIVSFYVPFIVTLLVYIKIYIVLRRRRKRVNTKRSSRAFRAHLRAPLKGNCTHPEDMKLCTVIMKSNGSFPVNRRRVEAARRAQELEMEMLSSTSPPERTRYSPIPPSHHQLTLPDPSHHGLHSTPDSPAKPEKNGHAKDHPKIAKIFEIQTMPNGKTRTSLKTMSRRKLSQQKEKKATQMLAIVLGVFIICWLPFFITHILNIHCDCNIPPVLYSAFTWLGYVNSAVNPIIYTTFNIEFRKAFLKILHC

For the compound `COc1cc(CN(C)[C@H]2C3C4CC5C6C4CC3C6C52)cc(OC)c1OC` (stereo partly specified), the inhibition in [1], in [2], in experiment [3], in experiment [4], in experiment [5] and in experiment [6] was < 50% each time. In addition, the inhibition in experiment [7], in experiment [8], in [9], in experiment [11], in experiment [12] and in experiment [13] was < 50% each time. Moreover, the inhibition in experiment [14] and in [15] was < 50% throughout. Further, in experiment [10], the Ratio Ki was determined as 1.7.
In the case of `CN(Cc1cccnc1)[C@H]1C2C3CC4C2C(=O)C2C4C3C21` (stereo partly specified), the inhibition in [1], in experiment [2], in experiment [3], in experiment [4], in [5] and in experiment [6] was < 50% in each case. Moreover, the inhibition in experiment [7], in [8], in experiment [9], in experiment [16], in experiment [11] and in experiment [12] was < 50% in each case. Moreover, the inhibition in experiment [13], in experiment [14] and in experiment [15] was < 50% in each case. In addition, the Ratio Ki in experiment [10] was determined as 0.28.
As for `CN(CCc1ccccn1)[C@H]1C2C3CC4C5C3CC2C5C41` (stereo partly specified), the inhibition in [1], in experiment [2], in [3], in experiment [4], in experiment [5] and in experiment [6] was < 50% each time. In addition, the inhibition in [7], in [8], in [9], in experiment [16], in experiment [12] and in experiment [13] was < 50% each time. Further, the inhibition in experiment [14] and in experiment [15] was < 50% each time. The Ratio Ki in [10] stood at 14.
With `CN(CC1CCCCC1)[C@H]1C2C3CC4C5C3CC2C5C41` (stereo partly specified), the inhibition in experiment [1], in experiment [2], in experiment [3], in experiment [4], in experiment [5] and in [6] was < 50% each time. Besides, the inhibition in experiment [7], in [8], in [16], in experiment [11], in experiment [12] and in [13] was < 50% throughout. The inhibition in experiment [14] and in [15] was < 50% each time. In addition, the Ratio Ki in experiment [10] was found to be 1.1.
For the compound `CN(CCCc1cccc(F)c1)[C@H]1C2C3CC4C5C3CC2C5C41` (stereo partly specified), the inhibition in experiment [1], in experiment [2], in experiment [3], in experiment [4], in [5] and in experiment [6] was < 50% throughout. Further, the inhibition in experiment [7], in [8], in experiment [9], in experiment [16], in experiment [11] and in experiment [12] was < 50% each time. Besides, the inhibition in experiment [13], in [14] and in [15] was < 50% in each case. The Ratio Ki in experiment [10] was found to be 39.
For the compound `CN(Cc1cccc(F)c1)[C@H]1C2C3CC4C2C(=O)C2C4C3C21` (stereo partly specified), the inhibition in [1], in [2], in experiment [3], in experiment [4], in experiment [5] and in [6] was < 50% in each case. The inhibition in experiment [7], in experiment [8], in experiment [9], in experiment [11], in experiment [12] and in experiment [14] was < 50% throughout. Also, in experiment [15], the inhibition is < 50%. Besides, the Ratio Ki in experiment [10] was 1.8.
